Laboratory results published in US9974760B2, “Compositions and methods for treating cancer” (Chemo-Enhanced LLC, priority 2011, dated 2018).
“Also recorded” adds a separate entry of the source.

Columns and labels:
[1] = tested on: L3.6 pancreatic cancer cells; test: Cell viability / cell death (MTT) in L3.6 pancreatic cancer cells; format: cell-based, human; settings: for cell death of L3.6 cells: 2.5 μg/ml C6-ceramide, 1.5 μg/ml taxol
Procedure: L3.6 pancreatic cancer cells, cultured either in the basic DMEM medium or with 10% FBS, were treated with the indicated doses of taxol in the presence or absence of C6-ceramide (10 μg/ml) for 48 hours and cell viability was detected by MTT assay (FIGS. 1A-1B). L3.6 cells, cultured either in basic DMEM medium or with 10% FBS, were treated with the indicated dose of C6-ceramide in the presence or absence of taxol (1.5 μg/ml) for 48 hours and cell viability was detected by MTT assay (FIGS. 1C-1D). Mitomycin C (10 μg/ml) was always present in the media to prevent cell proliferation from occurring. The data represents the mean±SD of at least triplicate experiments. *P<0.05 versus group without C6-ceramide presents (FIGS. 1A-1B). **P<0.05 versus group without taxol presents (FIGS. 1C-1D).
FIGS. 3A-3H show synergistic anti-tumor effects of C6-ceramide and gemcitabine in vivo and in vitro. SCID/Beige/Taconic nude male mice (22-25 g; 6-8 weeks old) were ear tagged and randomized into 4 different groups (Control, Ceramide, gemcitabine, Ceramide+gemcitabine) combining 5 mice each prior to inoculation subcutaneous (s.c.) with 2×10^6 L3.6 cells in a 0.1 ml volume into the internal surface of the right thigh. Treatment was started 4 days after L3.6 cell injection with thrice weekly (3×/wk) intraperitoneal (i.p.) injections of gemcitabine (two doses: 5.0 and 10.0 mg/ml) with or without C6-ceramide (10 mg/ml) for 2 weeks. Mouse survival (FIGS. 3A, 3B, and 3E) and tumor volume (in cm^3; FIGS. 3C and 3D) were recorded (FIG. 3E). Pancreatic cancer cell lines, including L3.6 cells (FIG. 3F), Panc-1 cells (FIG. 3G) and MIA-PaCa2 cells (MIA, FIG. 3H) were cultured in basic DMEM medium and were treated with gemcitabine (Gem, 1 μg/ml). Mitomycin C was always present in the media to prevent cell proliferation from occurring. The data represent the mean±SD of at least triplicate experiments. *P<0.05 versus group without C6-ceramide presents. The experiments were repeated at least three times and similar results were observed.
(§1) Pancreatic cancer cell lines L3.6 cells were left untreated or treated with gemcitabine (Gem, 1 μg/ml) or taxol (1.5 μg/ml) in the presence or absence of C6-ceramide (10 μg/ml) for 2, 4 and 6 hours, AKT/mTORC1 and ERK activation were detected by Western Blot using indicated antibodies (FIGS. 5A and 5C). p-AKT (S473) and p-ERK at 4 hour time intervals for each treatment quantified (FIGS. 5B and 5D). L3.6 cells were pretreated with various inhibitors including PI3K/AKT inhibitor LY 294002 (LY, 1 μM), mTORC1 inhibitor rapamycin (100 nM), MEK/ERK inhibitor U0126 (1 μg/ml) or gemcitabine (1 μg/ml) for 48 hours, cell death was detected 48 hours later (FIG. 5E). The effects of the various inhibitors described above on AKT/mTORC1 and ERK activation were also detected by Western Blots using commercial available antibodies (FIG. 5F). *P<0.05 versus group without C6-ceramide presents. The experiments were repeated at least three times and similar results were observed.
Cell viability was measured by the 3-[4m5-dimethylthylthiazol-2-y]-2.5 diphenyltetrazolium bromide (MTT) method, as described in Cao et al. (2009) Sci. Signal, 2:RA17. Briefly, the cells were collected and seeded in 96-well plate at a density of 2×10^5 cells/cm^2. Different seeding densities were optimized at the beginning of the experiments. After overnight incubation cells were exposed to fresh medium containing indicated reagents at 37° C. After incubation for different time periods, 20 ul of MTT tetrazolium (Sigma, St. Louis, Mo.) salt dissolved in Hank's balanced solution at a concentration of 5 mg/ml was added to each well and incubated in a CO2 incubator for an additional 4 hours. The medium was subsequently aspirated from each well and 150 ul of DMSO (Sigma, St. Louis, Mo.) was added to dissolve formazan crystals and the absorbance of each well was obtained using a Dynatech MR5000 plate reader at a test wavelength of 490 nm with a reference wavelength of 630 nm. […]

AKT/mTORC1 = test: Western Blot of AKT/mTORC1 activation in L3.6 cells; format: cell-based; settings: for PI3K/AKT/mTOR activation: Taxol alone
Procedure: as §1, with “5E).” for “5E). The effects of the various inhibitors described above on AKT/mTORC1 and ERK activation were also detected by Western Blots using commercial available antibodies (FIG. 5F). *P<0.05 versus group without C6-ceramide presents. The experiments were repeated at least three times and similar results were observed.”
(§2) As described in Cao et al. (2009) Sci. Signal, 2:RA17, aliquots of 30-40 μg of protein from each sample (treated as indicated in the legends) were separated by 10% SDS-polyacrylamide gel electrophoresis (SDS-PAGE) and transferred onto a polyvinylidene difluoride (PVDF) membrane (Millipore, Bedford, Mass.). After blocking with 10% instant nonfat dry milk for 1 hour, membranes were incubated with specific antibodies overnight at 4° C. followed by incubation with secondary antibodies (HRP-conjugated anti-rabbit or anti-mouse IgG at the appropriate dilutions) for 60 minutes to 1 hour at room temperature. Antibody binding was detected with the enhanced chemiluminescence (ECL) detection system (Amersham Biosciences, Piscataway, N.J.).

ERK = test: Western Blot of ERK activation in L3.6 cells; format: cell-based
Procedure: as §1, with “5E).” for “5E). The effects of the various inhibitors described above on AKT/mTORC1 and ERK activation were also detected by Western Blots using commercial available antibodies (FIG. 5F). *P<0.05 versus group without C6-ceramide presents. The experiments were repeated at least three times and similar results were observed.”
as §2

AMPK/ACC = AMPK/ACC signaling in L3.6 cell line; format: cell-based; settings: for AMPK activation: taxol alone
Description: The molecular mechanism involved in C6-ceramide induced chemosensitization effects was examined by focusing on taxol.
To further confirm the requirement of AMPK activation in this synergistic effect, siRNA directed against AMPK can be used.

| SMILES | L3.6 cell death ([1]; basic DMEM medium, MTT, 48 hours, paclitaxel 1.5 μg/ml alone or combined with C6-ceramide) | L3.6 cell death ([1]; cultured in 10% FBS) | cell death of L3.6 cells ([1]; cultured in 10% FBS) | PI3K/AKT/mTOR activation (AKT/mTORC1) | PI3K/AKT/mTOR activation (AKT/mTORC1; listed as Taxol) | effect on C6-ceramide induced AKT de-phosphorylation or inhibition (AKT/mTORC1; added to C6-ceramide) | effect on C6-ceramide inhibition of ERK activation (ERK; added to C6-ceramide) | AMPK activation (AMPK/ACC; listed as Taxol) | AMPK activation (AMPK/ACC; listed as taxol) | sensitization to cetuximab ([1]; L3.6 cells) | enhancement of paclitaxel induced cell death ([1]; L3.6 cells, dose dependent manner) | L3.6 cell death, agent alone ([1]; basic DMEM medium, MTT) | effect on taxol induced pro-survival PI3K/AKT/mTOR pathway (AKT/mTORC1; C6-ceramide added to taxol) | ERK activation / signaling (ERK; L3.6 cells, Western Blot) | effect on Taxol induced AMPK/ACC signaling (phosphorylation) (AMPK/ACC; C6-ceramide added to taxol, L3.6 cell line) |
| --- | --- | --- | --- | --- | --- | --- | --- | --- | --- | --- | --- | --- | --- | --- | --- |
| CC(=O)O[C@H]1C(=O)[C@@]2(C)[C@H]([C@H](OC(=O)c3ccccc3)[C@]3(O)C[C@H](OC(=O)[C@H](O)[C@@H](NC(=O)c4ccccc4)c4ccccc4)C(C)=C1C3(C)C)[C@]1(OC(C)=O)CO[C@@H]1C[C@@H]2O [paclitaxel] | less than 5% | neither taxol or C6-ceramide alone had any meaningful effects | neither of these two alone had any measurable effect | no effect | strongly induce | dramatically enhanced | enhanced | strongly induce | moderate AMPK activation |  |  |  |  |  |  |
| CCCCCCCCCCCCC/C=C/[C@@H](O)[C@H](CO)NC(=O)CCCCC [C6-ceramide, N-hexanoyl-D-sphingosine] |  | neither taxol or C6-ceramide alone had any meaningful effects | neither of these two alone had any measurable effect |  |  |  |  |  |  | markedly sensitized | dramatically enhanced | limited effects | dramatically reduces | induced moderate survival of AKT/mTORC1 and ERK activation; also recorded: inhibited | enhancing; also recorded: dramatically enhances |
